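Results reflect a 48-hour exposure of cells in 96-well plates to compound at five concentrations. TGI: concentration producing complete growth inhibition.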
Columns and labels:
Test in all cases: inhibition of tumour cell growth, NCI panel, 48 h
NCI-H226 lung = test system: NCI-H226 lung
SK-MEL-5 melanoma = test system: SK-MEL-5 melanoma
SF-539 CNS = test system: SF-539 CNS
SW-620 colon = test system: SW-620 colon
CCRF-CEM leukemia = test system: CCRF-CEM leukemia
MOLT-4 leukemia = test system: MOLT-4 leukemia
OVCAR-4 ovarian = test system: OVCAR-4 ovarian
786-0 renal = test system: 786-0 renal
OVCAR-3 ovarian = test system: OVCAR-3 ovarian
RXF 393 renal = test system: RXF 393 renal
ACHN renal = test system: ACHN renal
SN12C renal = test system: SN12C renal
T-47D breast = test system: T-47D breast
CAKI-1 renal = test system: CAKI-1 renal
HCC-2998 colon = test system: HCC-2998 colon
DU-145 prostate = test system: DU-145 prostate
SF-268 CNS = test system: SF-268 CNS
SK-MEL-28 melanoma = test system: SK-MEL-28 melanoma
M14 melanoma = test system: M14 melanoma
KM12 colon = test system: KM12 colon
RPMI-8226 leukemia = test system: RPMI-8226 leukemia
NCI-H522 lung = test system: NCI-H522 lung
UACC-62 melanoma = test system: UACC-62 melanoma
IGROV1 ovarian = test system: IGROV1 ovarian
MALME-3M melanoma = test system: MALME-3M melanoma
BT-549 breast = test system: BT-549 breast
HCT-116 colon = test system: HCT-116 colon
SK-MEL-2 melanoma = test system: SK-MEL-2 melanoma
LOX IMVI melanoma = test system: LOX IMVI melanoma
NCI-H23 lung = test system: NCI-H23 lung
K-562 leukemia = test system: K-562 leukemia
TK-10 renal = test system: TK-10 renal
SR leukemia = test system: SR leukemia
EKVX NSCLC = test system: EKVX NSCLC
HT29 colon = test system: HT29 colon
OVCAR-8 ovarian = test system: OVCAR-8 ovarian
U251 CNS = test system: U251 CNS
COLO 205 colon = test system: COLO 205 colon
NCI-H460 lung = test system: NCI-H460 lung
UACC-257 melanoma = test system: UACC-257 melanoma
SK-OV-3 ovarian = test system: SK-OV-3 ovarian
SNB-19 CNS = test system: SNB-19 CNS
MDA-N = test system: MDA-N
HL-60(TB) leukemia = test system: HL-60(TB) leukemia
HCT-15 colon = test system: HCT-15 colon
A549 NSCLC = test system: A549 NSCLC
MCF7 breast = test system: MCF7 breast
MDA-MB-231 breast = test system: MDA-MB-231 breast
OVCAR-5 ovarian = test system: OVCAR-5 ovarian
PC-3 prostate = test system: PC-3 prostate
NCI/ADR-RES ovarian = test system: NCI/ADR-RES ovarian
HOP-62 NSCLC = test system: HOP-62 NSCLC
MDA-MB-435 = test system: MDA-MB-435
A498 renal = test system: A498 renal
HS 578T breast = test system: HS 578T breast
SF-295 CNS = test system: SF-295 CNS
SNB-75 CNS = test system: SNB-75 CNS
UO-31 renal = test system: UO-31 renal
HOP-92 NSCLC = test system: HOP-92 NSCLC

SMILES: COC(=O)/C=C\[C@H]1[C@H](C)N1S(=O)(=O)c1ccc(C)cc1 (some centres not stated)
- TGI (NCI-H226 lung): > 100 µM
- TGI (SK-MEL-5 melanoma): > 100 µM
- TGI (SF-539 CNS): > 100 µM
- TGI (SW-620 colon): > 100 µM
- TGI (CCRF-CEM leukemia): > 100 µM
- TGI (MOLT-4 leukemia): > 100 µM
- TGI (OVCAR-4 ovarian): > 100 µM
- TGI (786-0 renal): > 100 µM
- TGI (OVCAR-3 ovarian): > 100 µM
- TGI (RXF 393 renal): > 100 µM
- TGI (ACHN renal): > 100 µM
- TGI (SN12C renal): > 100 µM
- TGI (T-47D breast): > 100 µM
- TGI (CAKI-1 renal): > 100 µM
- TGI (HCC-2998 colon): > 100 µM
- TGI (DU-145 prostate): > 100 µM
- TGI (SF-268 CNS): > 100 µM
- TGI (SK-MEL-28 melanoma): > 100 µM
- TGI (M14 melanoma): > 100 µM
- TGI (KM12 colon): > 100 µM
- TGI (RPMI-8226 leukemia): > 100 µM
- TGI (NCI-H522 lung): 46 µM
- TGI (UACC-62 melanoma): > 100 µM
- TGI (IGROV1 ovarian): > 100 µM
- TGI (MALME-3M melanoma): > 100 µM
- TGI (BT-549 breast): > 100 µM
- TGI (HCT-116 colon): > 100 µM
- TGI (SK-MEL-2 melanoma): > 100 µM
- TGI (LOX IMVI melanoma): > 100 µM
- TGI (NCI-H23 lung): > 100 µM
- TGI (K-562 leukemia): > 100 µM
- TGI (TK-10 renal): > 100 µM
- TGI (SR leukemia): > 100 µM
- TGI (EKVX NSCLC): > 100 µM
- TGI (HT29 colon): > 100 µM
- TGI (OVCAR-8 ovarian): > 100 µM
- TGI (U251 CNS): > 100 µM
- TGI (COLO 205 colon): > 100 µM
- TGI (NCI-H460 lung): > 100 µM
- TGI (UACC-257 melanoma): > 100 µM
- TGI (SK-OV-3 ovarian): > 100 µM
- TGI (SNB-19 CNS): > 100 µM
- TGI (MDA-N): > 100 µM
- TGI (HL-60(TB) leukemia): > 100 µM
- TGI (HCT-15 colon): > 100 µM
- TGI (A549 NSCLC): > 100 µM
- TGI (MCF7 breast): > 100 µM
- TGI (MDA-MB-231 breast): > 100 µM
- TGI (OVCAR-5 ovarian): > 100 µM
- TGI (PC-3 prostate): > 100 µM
- TGI (NCI/ADR-RES ovarian): > 100 µM
- TGI (HOP-62 NSCLC): > 100 µM
- TGI (MDA-MB-435): > 100 µM
- TGI (A498 renal): > 100 µM
- TGI (HS 578T breast): > 100 µM
- TGI (SF-295 CNS): > 100 µM

SMILES: C=C(CCOC)CCC1CCCCC/C1=N\N(C)C (configuration not stated)
- TGI (NCI-H226 lung): > 100 µM
- TGI (SK-MEL-5 melanoma): > 100 µM
- TGI (SW-620 colon): > 100 µM
- TGI (CCRF-CEM leukemia): > 100 µM
- TGI (MOLT-4 leukemia): > 100 µM
- TGI (OVCAR-4 ovarian): > 100 µM
- TGI (786-0 renal): > 100 µM
- TGI (OVCAR-3 ovarian): > 100 µM
- TGI (RXF 393 renal): > 100 µM
- TGI (ACHN renal): > 100 µM
- TGI (SN12C renal): > 100 µM
- TGI (T-47D breast): > 100 µM
- TGI (CAKI-1 renal): > 100 µM
- TGI (HCC-2998 colon): > 100 µM
- TGI (DU-145 prostate): > 100 µM
- TGI (SF-268 CNS): > 100 µM
- TGI (SK-MEL-28 melanoma): > 100 µM
- TGI (M14 melanoma): > 100 µM
- TGI (KM12 colon): > 100 µM
- TGI (RPMI-8226 leukemia): > 100 µM
- TGI (NCI-H522 lung): > 100 µM
- TGI (UACC-62 melanoma): > 100 µM
- TGI (IGROV1 ovarian): > 100 µM
- TGI (MALME-3M melanoma): > 100 µM
- TGI (BT-549 breast): > 100 µM
- TGI (HCT-116 colon): > 100 µM
- TGI (SK-MEL-2 melanoma): > 100 µM
- TGI (LOX IMVI melanoma): > 100 µM
- TGI (NCI-H23 lung): > 100 µM
- TGI (K-562 leukemia): > 100 µM
- TGI (SR leukemia): > 100 µM
- TGI (EKVX NSCLC): > 100 µM
- TGI (HT29 colon): > 100 µM
- TGI (OVCAR-8 ovarian): > 100 µM
- TGI (SNB-75 CNS): > 100 µM
- TGI (U251 CNS): > 100 µM
- TGI (UO-31 renal): > 100 µM
- TGI (COLO 205 colon): > 100 µM
- TGI (NCI-H460 lung): > 100 µM
- TGI (SK-OV-3 ovarian): > 100 µM
- TGI (SNB-19 CNS): > 100 µM
- TGI (MDA-N): > 100 µM
- TGI (HL-60(TB) leukemia): > 100 µM
- TGI (HCT-15 colon): > 100 µM
- TGI (A549 NSCLC): > 100 µM
- TGI (MCF7 breast): > 100 µM
- TGI (MDA-MB-231 breast): > 100 µM
- TGI (OVCAR-5 ovarian): > 100 µM
- TGI (PC-3 prostate): > 100 µM
- TGI (NCI/ADR-RES ovarian): > 100 µM
- TGI (HOP-62 NSCLC): > 100 µM
- TGI (MDA-MB-435): > 100 µM
- TGI (A498 renal): > 100 µM
- TGI (HS 578T breast): > 100 µM
- TGI (SF-295 CNS): > 100 µM

SMILES: O=NN1CCNC1Cc1ccccc1 (configuration not stated)
- TGI (NCI-H226 lung): > 100 µM
- TGI (SK-MEL-5 melanoma): > 100 µM
- TGI (SF-539 CNS): > 100 µM
- TGI (SW-620 colon): > 100 µM
- TGI (CCRF-CEM leukemia): > 100 µM
- TGI (MOLT-4 leukemia): > 100 µM
- TGI (OVCAR-4 ovarian): > 100 µM
- TGI (786-0 renal): > 100 µM
- TGI (OVCAR-3 ovarian): > 100 µM
- TGI (RXF 393 renal): > 100 µM
- TGI (ACHN renal): > 100 µM
- TGI (SN12C renal): > 100 µM
- TGI (T-47D breast): > 100 µM
- TGI (HCC-2998 colon): > 100 µM
- TGI (DU-145 prostate): > 100 µM
- TGI (SF-268 CNS): > 100 µM
- TGI (SK-MEL-28 melanoma): > 100 µM
- TGI (M14 melanoma): > 100 µM
- TGI (KM12 colon): > 100 µM
- TGI (RPMI-8226 leukemia): > 100 µM
- TGI (NCI-H522 lung): > 100 µM
- TGI (UACC-62 melanoma): > 100 µM
- TGI (IGROV1 ovarian): > 100 µM
- TGI (MALME-3M melanoma): > 100 µM
- TGI (BT-549 breast): > 100 µM
- TGI (HCT-116 colon): > 100 µM
- TGI (LOX IMVI melanoma): > 100 µM
- TGI (NCI-H23 lung): > 100 µM
- TGI (K-562 leukemia): > 100 µM
- TGI (TK-10 renal): > 100 µM
- TGI (SR leukemia): > 100 µM
- TGI (EKVX NSCLC): > 100 µM
- TGI (HT29 colon): > 100 µM
- TGI (OVCAR-8 ovarian): > 100 µM
- TGI (SNB-75 CNS): 72.6 µM
- TGI (U251 CNS): > 100 µM
- TGI (UO-31 renal): > 100 µM
- TGI (COLO 205 colon): > 100 µM
- TGI (NCI-H460 lung): > 100 µM
- TGI (UACC-257 melanoma): > 100 µM
- TGI (SK-OV-3 ovarian): > 100 µM
- TGI (SNB-19 CNS): > 100 µM
- TGI (MDA-N): > 100 µM
- TGI (HL-60(TB) leukemia): > 100 µM
- TGI (HCT-15 colon): > 100 µM
- TGI (A549 NSCLC): > 100 µM
- TGI (MCF7 breast): > 100 µM
- TGI (MDA-MB-231 breast): > 100 µM
- TGI (OVCAR-5 ovarian): > 100 µM
- TGI (PC-3 prostate): > 100 µM
- TGI (NCI/ADR-RES ovarian): > 100 µM
- TGI (HOP-62 NSCLC): > 100 µM
- TGI (MDA-MB-435): > 100 µM
- TGI (HS 578T breast): > 100 µM
- TGI (HOP-92 NSCLC): > 100 µM
- TGI (SF-295 CNS): > 100 µM
